Laboratory results as given in patent US9657046B2, “Methods for the treatment and prevention of inflammatory diseases” (Children's Medical Center Corporation, priority 2010, dated 2017).

How the values were obtained:
NKT cell clone BM2a.3 = test: Human NKT cell clone BM2a.3 with CD1d-transfected cells, IFN-γ; assay type: cell-based
Method: (§1) In FIG. 7A, NKT cell lines were cocultured with BM-derived DCs (BMDCs) and α-GalCer (100 ng/ml), PI57 (10 μg/ml), or vehicle for 48 hours, with or without pre-incubation with anti-CD1d (10 μg/ml). IFN-γ was measured by ELISA. In FIG. 7B, murine NKT cell lines were cocultured as in 7A with BMDCs from WT, Cd1d^−/−, Myd88^−/−, or Trif^−/− mice. Cells were treated with α-GalCer (100 ng/ml), PI57 (2.5, 5, or 10 μg/ml), PBS30 (1, 2.5, or 5 μg/ml), or vehicle for 48 hours. IFN-γ and IL-4 were measured by ELISA. […] In FIG. 7D, mouse NKT cell lines were stained with PE-labeled CD1d tetramers of PI57 or α-GalCer at 4° C. for 45 minutes or 37° C. for 25 minutes, and with anti-TCRβ-APC antibody. Top: Lymphocytes were gated in the FSC/SSC window. Bottom: Percentage of CD1d tetramer+ cells. […] In FIG. 7G, CD1d Fc-coated Maxisorp plates were loaded with lipid and cultured with 5×10^4 NKT cells. IFN-γ was analyzed by ELISA after 24 hours. Data represent 3 or 5 independent experiments.
CD1d transfected K562 cells and CD1d restricted human NKT cell clone BM2a.3 were previously described (62). The anti-CD1d antibody (clone 12.1.1.1) experiments have been performed as described (63).

[1] = test system: invariant Vα14 NKT cell hybridomas; test: Invariant Vα14 NKT cell hybridomas with glycolipid-loaded immobilized CD1d, IL-2; assay type: cell-based, mouse; conditions: immobilized recombinant CD1d loaded with glycolipid; three hybridomas (RT2, RT23, RT24)
Method: as §1
NKT cell hybridomas were established from C57BL/6 thymic NKT cells by fusion with thymoma BW5147 as previously described (61).
Culture wells were coated with recombinant CD1/β2m dimer proteins (Becton Dickinson) according to the manufacture's protocols. […] Cytokines in the culture supernatants were determined by ELISA.

CCCCCCCCCCCCCC(=O)OC[C@H]1O[C@H](O[C@H]2CC[C@@]3(C)C(=CC[C@H]4[C@@H]5CC[C@H]([C@H](C)CCCC(C)C)[C@@]5(C)CC[C@@H]43)C2)[C@H](O)[C@@H](O)[C@@H]1O [PI57, Cholesteryl 6-O-tetradecanoyl-α-D-glucopyranoside]
response (IFN-γ production) of Vα24+ NKT cell clone BM2a.3 (NKT cell clone BM2a.3): responded to this glycolipid
IL-2 production by Vα14 NKT cell hybridomas [1]: produced IL-2
